Experimental data published in patent publication US6943268B2 (priority 1999, dated 2005).

Experiments:
[1] = test system: L-selectin on neutrophils; assay type: cell-based, human
HIV = details: chlorpromazine: at the concentration of Table I; cited from earlier work
[2] = test system: L-selectin on lymphocytes; assay type: cell-based, human
[3] = test system: Mac-1 (CD18/CD11b) on neutrophils; assay type: cell-based, human

Compound	approximate concentration for 100% LOSS of L-selectin from cell surface [1]	other results
[O-2].[O-2].[O-2].[Sb+3].[Sb+3] [Antimony (Sb203)]	~50 µM	–
O=[As]O[As]=O (stereo not drawn) [Arsenic (As203)]	~50 µM	–
NC(=O)N=NC(N)=O [Azodicarbonamide]	~1 mM-	HIV infectivity (HIV): blocks HIV infectivity,
[Cl][Cd][Cl] [Cadmium (CdC12)]	~1000 µM	–
CN(C)CCCN1c2ccccc2Sc2ccc(Cl)cc21 [Chlorpromazine]	~50 mM-	effective concentrations for induction of L-selectin shedding [1]: 10 to 50 µM
Clc1ccc(C(c2ccc(Cl)cc2)C(Cl)(Cl)Cl)cc1 [DDT]	~50 uM-	–
O=S(=O)(O)c1cc(N=C=S)ccc1C=Cc1ccc(N=C=S)cc1S(=O)(=O)O [DIDS]	~200 uM-	–
O=C(O)c1cc(SSc2ccc([N+](=O)[O-])c(C(=O)O)c2)ccc1[N+](=O)[O-] [DTNB, 5′,5′-dithio-bis(2-nitrobenzoic acid)]	~1 mM-	–
CN(C)C(=O)/N=N/C(=O)N(C)C [Diamide]	~1 mM-	–
Cc1c(CBr)n2c(CBr)c(C)c(=O)n2c1=O [Dibromobimane bBBr, Dibromobimane]	~100 um-	–
C1COCCO1 [Dioxane]	–	induction of L-selectin shedding (in words) [1]: itself induces L-selectin release
CCN(CC)C(=S)SSC(=S)N(CC)CC [Disulfiram (Antabuse), Disulfiram]	~50 uM-	–
OO [Hydrogen peroxide]	~150 uM-	–
NC(=O)CI [Iodoacetamide]	~10 mM-	–
O=C(O)CI [Iodoacetate IA, Iodoacetate]	~300 uM-	–
O=Ic1ccccc1C(=O)O [Iodosobenzoate]	~1 mM-	–
COc1ccc(C(c2ccc(OC)cc2)C(Cl)(Cl)Cl)cc1 [Methoxychlor]	~50 uM-	–
Cc1c(C)n2c(CBr)c(C)c(=O)n2c1=O [Monobromobimane mBBr, Monobromobimane]	~100 uM-	–
CCN1C(=O)C=CC1=O [N-ethylmaleimide]	~250 uM-	–
COc1cc(-c2ccc(-n3nc(-c4ccccc4)n[n+]3-c3ccc([N+](=O)[O-])cc3)c(OC)c2)ccc1-n1nc(-c2ccccc2)n[n+]1-c1ccc([N+](=O)[O-])cc1 [Nitroblue tetrazolium]	~100 uM-	–
CCCCCCCCCCCCCC(=O)O[C@@H]1[C@@H](C)[C@@]2(O)[C@@H](C=C(CO)C[C@]3(O)C(=O)C(C)=C[C@@H]23)[C@@H]2C(C)(C)[C@]12OC(C)=O [PMA]	–	time for lymphocytes to shed L-selectin [2]: ~30 min
O=S(=O)(F)Cc1ccccc1 [PMSF]	~1 mM-	–
CSCC[C@H](NC=O)C(=O)N[C@@H](CC(C)C)C(=O)N[C@@H](Cc1ccccc1)C(=O)O [fMLP, formyl-methionyl-leucyl-phenylalanine]	–	response of lymphocytes (L-selectin shedding) [2]: do not respond; cell surface L-selectin released [1]: at least 90%; increase of cell surface Mac-1 expression compared to the ice control [3]: 3-10 fold
Protein Disulfide Isomerase	~20 ug/ml-	–
Thimerosal	~500 um-	–
Thioredoxin	~50 ug/ml-	–
